In PubChem BioAssay (NCI):
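Interpolation was linear, between the two tested concentrations surrounding the appropriate level; five concentrations were tested over 48 hours in 96-well plates. GI50: concentration for 50% inhibition of growth. The concentration for full growth arrest is given as TGI.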

What was measured:
Assay in all cases: DTP human tumour cell line panel, 48 h
HCT-116 colon = tested on: HCT-116 colon
UO-31 renal = tested on: UO-31 renal
SN12C renal = tested on: SN12C renal
U251 CNS = tested on: U251 CNS
SK-MEL-2 melanoma = tested on: SK-MEL-2 melanoma
A549 NSCLC = tested on: A549 NSCLC
HT29 colon = tested on: HT29 colon
KM12 colon = tested on: KM12 colon
SK-MEL-5 melanoma = tested on: SK-MEL-5 melanoma
HOP-92 NSCLC = tested on: HOP-92 NSCLC
NCI-H226 lung = tested on: NCI-H226 lung
HOP-62 NSCLC = tested on: HOP-62 NSCLC
MCF7 breast = tested on: MCF7 breast
NCI/ADR-RES ovarian = tested on: NCI/ADR-RES ovarian
DU-145 prostate = tested on: DU-145 prostate
SW-620 colon = tested on: SW-620 colon
ACHN renal = tested on: ACHN renal
TK-10 renal = tested on: TK-10 renal
MDA-MB-435 = tested on: MDA-MB-435
SK-MEL-28 melanoma = tested on: SK-MEL-28 melanoma
A498 renal = tested on: A498 renal
SNB-75 CNS = tested on: SNB-75 CNS
UACC-62 melanoma = tested on: UACC-62 melanoma
T-47D breast = tested on: T-47D breast
SF-295 CNS = tested on: SF-295 CNS
NCI-H460 lung = tested on: NCI-H460 lung
PC-3 prostate = tested on: PC-3 prostate
M14 melanoma = tested on: M14 melanoma
SNB-19 CNS = tested on: SNB-19 CNS

## CN(C)C(=O)OCc1nc2c(N3CCOCC3)nc(-c3ccccc3)nc2n1C
HCT-116 colon
  GI50: 0.204 µM
  TGI: 0.616 µM
UO-31 renal
  GI50: 0.373 µM
  TGI: 1.55 µM
SN12C renal
  GI50: 0.912 µM
  TGI: 2.31 µM
U251 CNS
  GI50: 1.47 µM
  TGI: 2.98 µM
SK-MEL-2 melanoma
  GI50: 1.77 µM
  TGI: 3.43 µM
A549 NSCLC
  GI50: 1.56 µM
  TGI: 3.75 µM
HT29 colon
  GI50: 0.476 µM
  TGI: 1.78 µM
KM12 colon
  GI50: 1.54 µM
  TGI: 3.32 µM
SK-MEL-5 melanoma
  GI50: 1.42 µM
  TGI: 2.73 µM
HOP-92 NSCLC
  GI50: 0.399 µM
  TGI: 1.24 µM
NCI-H226 lung
  GI50: 1.69 µM
  TGI: 3.65 µM
HOP-62 NSCLC
  GI50: 1.72 µM
  TGI: 4.46 µM
MCF7 breast
  GI50: 0.427 µM
  TGI: 2.09 µM
NCI/ADR-RES ovarian
  GI50: 1.59 µM
  TGI: 6.53 µM
DU-145 prostate
  GI50: 1.05 µM
  TGI: 2.28 µM
SW-620 colon
  GI50: 0.305 µM
  TGI: 0.899 µM
ACHN renal
  GI50: 0.415 µM
  TGI: 1.43 µM
TK-10 renal
  GI50: 1.46 µM
  TGI: 2.81 µM
MDA-MB-435
  GI50: 0.891 µM
  TGI: 2.27 µM
SK-MEL-28 melanoma
  GI50: 1.55 µM
  TGI: 2.9 µM
A498 renal
  GI50: 1.34 µM
  TGI: 2.68 µM
SNB-75 CNS
  GI50: 1.1 µM
  TGI: 2.37 µM
UACC-62 melanoma
  GI50: 1.39 µM
  TGI: 2.73 µM
T-47D breast
  GI50: 1.85 µM
  TGI: 4.62 µM
SF-295 CNS
  GI50: 1.65 µM
  TGI: 3.08 µM
NCI-H460 lung
  GI50: 1.66 µM
  TGI: 3.52 µM
PC-3 prostate
  GI50: 0.507 µM
  TGI: 1.31 µM
M14 melanoma
  GI50: 0.609 µM
  TGI: 1.9 µM
SNB-19 CNS
  GI50: 1.53 µM
  TGI: 2.93 µM
